Tests used:
MAIT cells = experiment: In vitro co-culture of purified splenic MAIT or conventional T cells with ligand-treated B16F10 cells; type: cell-based, mouse
B16F10 melanoma cells = experiment: B16F10 experimental lung metastasis model; type: in vivo, mouse
Description: FIG. 2. […] (A) The schematic and timeline of expanding MAIT cells from splenocytes derived from C57BL/6 WT mice with IL-2 and 5-OP-RU, for sorting and adoptive transfer into tumor-bearing mice. (B, C) Groups of WT or MR1^−/− or Rag2cγ^−/− mice (n=5-6/group) were injected i.v. with (B) 1×10^5 or (C) 1×10^4 B16F10 melanoma cells. In some groups, sorted MAIT or T conventional cells (cT) (non-MAIT αβ^+ T cells) (2×10^5 cells/mouse) from C57BL/6 (B) WT or (C) TCRδ^−/− mice were i.v. injected into the indicated groups of mice one day before tumor inoculation. (C) One group of mice received i.v injection of media alone as a control. (B, C) On day 14 relative to tumor cell inoculation, lungs were harvested and the metastatic burden was quantified by counting colonies on the lung surface. Data presented as mean±SEM. (D) B16F10 or LWT1 melanoma cells were stimulated in vitro with DMSO or 5-OP-RU (100 nM) for 4 hours before cell surface MR1 expression was determined by flow cytometry. Groups of C57BL/6 WT or MR1^−/− mice (n=5-6/group) were i.v. injected with (E) 1×10^5 B16F10 or (F) 5×10^5 LWT1 cells melanoma cells pulsed with DMSO or 5-OP-RU (100 nM, 4 hours). Fourteen days later relative to tumor cell inoculation, lungs were harvested and the metastatic burden was quantified by counting colonies on the lung surface. Data presented as mean±SEM. Experiments performed once for (B, C, F) and three times for (D, E) with one representative experiment shown. Significant differences between groups as indicated by crossbars were determined using a one-way ANOVA followed by Tukey's post-hoc test (B, E, F), *p<0.05, **p<0.01, ****p<0.0001
FIG. 5. […] (A) Generation of three independent B16F10 cell lines knocked out for MR1 using three different MR1 sgRNA. […] Empty vector transfected B16F10 cells were used as a positive control. (B, C) Groups of C57BL/6 WT, MR1^−/− or Rag2cγ^−/− mice (n=5-6/group) were i.v. injected with either (B) 1×10^5 B16F10 vector control cells or the indicated clone of B16F10 cells lacking MR1 (sgR1, sgR2, sgR3) or (C) 1×10^4 B16F10-MR1^KO cells (sgR3 clone). On day 14 relative to tumor cell inoculation, lungs were harvested and the metastatic burden was quantified by counting colonies on the lung surface. Data presented as mean±SEM. (D) Re-expression of GFP or GFP-MR1 expressing vector into B16F10-MR1^KO (sgR3 clone). MR1 surface expressions of these cells stimulated with or without 5-OP-RU were assessed by flow cytometry. (E) Groups of C57BL/6 WT mice (n=6/group) were i.v. injected with 1×10^5 B16F10-MR1^KO (sgR3 clone) transfected with empty GFP-expressing vector or MR1-GFP-expressing vector. (F) Groups of C57BL/6 WT or MR1^−/− mice were i.v. injected with parental B16F10 cells treated with vehicle (dd H2O) or AC-6-FP (10 μM, 18 hours). On day 14 relative to tumor cell injection, lungs were harvested and the metastatic burden was quantified by counting colonies on the lung surface. Data presented as mean±SEM. Experiments performed twice for (A-E) and once for (F). Significant differences between groups as indicated by crossbars were determined by a one-way ANOVA followed by Tukey's post-hoc test (A, F), or a Mann-Whitney test (C, E), *p<0.05, **p<0.01, ****p<0.0001.
FIG. 6. […] Groups of C57BL/6 WT or MR1^−/− mice (n=5-6/group) were i.v. injected with (A, B) 1×10^5 B16F10, (C) 1×10^5 parental B16F10 or 2×10^5 B16F10-MR1^KO (sgR3 clone) melanoma cells and (D) 5×10^5 LWT1 melanoma cells or s.c injected with (E) 1×10^6 MCA1956 fibrosarcoma or (F) 1×10^6 SM1WT1 melanoma cells on day 0.

MR1 / MAIT cells = conditions: cited from earlier work

Row | Molecule | cytokine production (MAIT cells; conventional T cells with treated vs DMSO-treated B16F10) | number of treated CTV-labeled B16F10 cells (MAIT cells; following co-culture with MAIT cells) | IFNγ, IL-17A and TNF production (MAIT cells; purified splenic MAIT cells with treated vs DMSO-treated B16F10) | number of lung metastases (B16F10 melanoma cells; MR1-/- mice i.v. injected with pre-treated B16F10, vs DMSO-treated, day 14) | number of lung metastases (B16F10 melanoma cells; WT mice i.v. injected with B16F10 pre-treated 100 nM 4 h, vs DMSO-treated, day 14) | effect on MAIT cell activation (MR1 / MAIT cells; background statement) | number of lung metastases (B16F10 melanoma cells; B16F10 tumor-bearing MR1-/- mice, antibody vs cIg) | suppression of B16F10 lung metastases compared with the 26.5 clone (B16F10 melanoma cells; WT mice, 250 μg/mouse i.p.) | suppression of B16F10 lung metastases, three vs four doses (B16F10 melanoma cells; WT mice, 250 μg/mouse i.p., days -1, 0, 3 vs days -1, 0, 3 and 7) | B16F10-MR1 KO (sgR3) lung metastases numbers (B16F10 melanoma cells; WT mice, antibody vs cIg, days -1, 0 and 3) | blocking of MAIT cell interaction with MR1 (MR1 / MAIT cells; stated as known)
1 | CC(=O)C=Nc1c(NC[C@H](O)[C@H](O)[C@H](O)CO)[nH]c(=O)[nH]c1=O [5-OP-RU] | no increase in cytokine production | decrease | produced more | this increase was lost | significantly increased | one of the most potent stimulatory MAIT cell antigens | – | – | – | – | –
2 | 8F2.F9: anti-MR1 blocking antibody from hybridoma clone 8F2.F9, IgG1 isotype; heavy chain SEQ ID NO: 14, light chain SEQ ID NO: 18 (antibody, listed as Mus musculus, V domains shown) VH: MKFSWVIFFLMAVVTGVNSEVQLQQSVAELVRPGASVKLSCTASGFNIKNTYMHWVKKRPELGLEWIGRIDPANGNTNFAPKFQGKATITADTSSNTAYLQLSSLTSEDTAIYYCPRGSGNYYFDYWGQGTTLTVSS VL: MSSAQFLGLLLLCFQGTRCDIQMTQTTSSLSASLGDRVTISCRASQDISNYLNWYQQKPDGPVKLLIYYTSRLHSGVPSRFSGSGSGTDYSLTINNLAQEDIATYFCQQGNTLPYTFGGGTKLEIK | – | – | – | – | – | – | no further decrease | superior | equivalently reduced | not reduced | block MAIT cells from interacting with MR1

— patent publication US20220213198A1, “METHOD OF TREATMENT” (The Council of the Queensland Institute of Medical Research, priority 2019, published 2022)
